The molecules below were run on Magnaporthe grisea (Pyricularia oryzae—PYRIOR) (assay: microbe, parasite or virus in culture). Conditions: Pyricularia oryzae, read-out: PYRIOR in vitro Growth Inhibition.
Type: cell-based
`COc1ccnc(C(=O)N[C@H]2COC(=O)[C@H](Cc3ccccc3)[C@@H](OC(=O)C(C)C)[C@H](C)OC2=O)c1OC(=O)CCCBr` [Compound 625] was tested, and the inhibition at 25 ppm was < 80%. In the case of `COc1cc(Br)nc(C(=O)N[C@H]2COC(=O)[C@H](Cc3ccccc3)[C@@H](OC(=O)C3CCCCC3)[C@H](C)OC2=O)c1O` [Compound 501], the inhibition at 25 ppm is reported as > 80%. With `COc1ccc(C(C)NC(=O)c2ccncc2O)cc1` (centres unmarked) [Compound 508] the inhibition at 25 ppm was < 80%. For `COc1ccnc(C(=O)N[C@H]2CC(C)(C)[C@H](O)C(C)(C)C2)c1O` [Compound 264, trans-4-HYDROXY-3,3,5,5-TETRAMETHYLPICOLINAMIDE], the inhibition at 25 ppm was < 80%.

Each molecule was assayed on Rhizoctonia solani (RHIZSO) (assay: microbe, parasite or virus in culture). Conditions: Rhizoctonia solani, read-out: RHIZSO in vitro Growth Inhibition.
Type: cell-based
`COc1ccnc(C(=O)N[C@H]2COC(=O)[C@H](Cc3ccccc3)[C@@H](OC(=O)C(C)C)[C@H](C)OC2=O)c1OC(=O)CCCBr` [Compound 625] was tested, and the inhibition at 25 ppm was < 80%. `COc1cc(Br)nc(C(=O)N[C@H]2COC(=O)[C@H](Cc3ccccc3)[C@@H](OC(=O)C3CCCCC3)[C@H](C)OC2=O)c1O` [Compound 501] was tested, and the inhibition at 25 ppm was < 80%. `COc1ccc(C(C)NC(=O)c2ccncc2O)cc1` (centres unmarked) [Compound 508] was tested, and the inhibition at 25 ppm was < 80%. With `COc1ccnc(C(=O)N[C@H]2CC(C)(C)[C@H](O)C(C)(C)C2)c1O` [Compound 264, trans-4-HYDROXY-3,3,5,5-TETRAMETHYLPICOLINAMIDE] the inhibition at 25 ppm was < 80%.

These molecules were tested on Mycosphaerella graminicola (Septoria tritici—SEPTTR) (assay: In vitro fungal growth inhibition, Mycosphaerella graminicola (SEPTTR)). Conditions: Zymoseptoria tritici; 25 ppm in growth medium; read-out: SEPTTR in vitro Growth Inhibition.
Type: cell-based
`COc1ccnc(C(=O)N[C@H]2COC(=O)[C@H](Cc3ccccc3)[C@@H](OC(=O)C(C)C)[C@H](C)OC2=O)c1OC(=O)CCCBr` [Compound 625] was tested, and the inhibition at 25 ppm was < 80%. With `COc1ccnc(C(=O)N[C@H]2CC(C)(C)[C@H](O)C(C)(C)C2)c1O` [Compound 264, trans-4-HYDROXY-3,3,5,5-TETRAMETHYLPICOLINAMIDE] the inhibition at 25 ppm was < 80%.

Same assay, conditions: Zymoseptoria tritici; 25 ppm in the growth medium; read-out: SEPTTR in vitro Growth Inhibition
For `COc1cc(Br)nc(C(=O)N[C@H]2COC(=O)[C@H](Cc3ccccc3)[C@@H](OC(=O)C3CCCCC3)[C@H](C)OC2=O)c1O` [Compound 501], the inhibition at 25 ppm was > 80%. With `COc1ccc(C(C)NC(=O)c2ccncc2O)cc1` (centres unmarked) [Compound 508] the inhibition at 25 ppm was < 80%.

These molecules were tested on Stagonospora nodorum (Leptosphaeria nodorum—LEPTNO) (assay: In vitro fungal growth inhibition, Stagonospora nodorum (LEPTNO)). Conditions: Leptosphaeria; 25 ppm in growth medium; read-out: LEPTNO in vitro Growth Inhibition.
Type: cell-based
With `COc1ccnc(C(=O)N[C@H]2COC(=O)[C@H](Cc3ccccc3)[C@@H](OC(=O)C(C)C)[C@H](C)OC2=O)c1OC(=O)CCCBr` [Compound 625] the inhibition at 25 ppm was > 80%. In the case of `COc1ccnc(C(=O)N[C@H]2CC(C)(C)[C@H](O)C(C)(C)C2)c1O` [Compound 264, trans-4-HYDROXY-3,3,5,5-TETRAMETHYLPICOLINAMIDE], the inhibition at 25 ppm is reported as < 80%.

Same assay, conditions: Leptosphaeria; 25 ppm in the growth medium; read-out: LEPTNO in vitro Growth Inhibition
In the case of `COc1cc(Br)nc(C(=O)N[C@H]2COC(=O)[C@H](Cc3ccccc3)[C@@H](OC(=O)C3CCCCC3)[C@H](C)OC2=O)c1O` [Compound 501], the inhibition at 25 ppm is reported as > 80%. With `COc1ccc(C(C)NC(=O)c2ccncc2O)cc1` (centres unmarked) [Compound 508] the inhibition at 25 ppm was < 80%.

What follows are molecules tested on Ustilago maydis (USTIMA) (assay: microbe, parasite or virus in culture). Conditions: Mycosarcoma maydis, read-out: USTIMA in vitro Growth Inhibition.
Type: cell-based
In the case of `COc1ccnc(C(=O)N[C@H]2COC(=O)[C@H](Cc3ccccc3)[C@@H](OC(=O)C(C)C)[C@H](C)OC2=O)c1OC(=O)CCCBr` [Compound 625], the inhibition at 25 ppm is reported as < 80%. For `COc1cc(Br)nc(C(=O)N[C@H]2COC(=O)[C@H](Cc3ccccc3)[C@@H](OC(=O)C3CCCCC3)[C@H](C)OC2=O)c1O` [Compound 501], the inhibition at 25 ppm was > 80%. `COc1ccc(C(C)NC(=O)c2ccncc2O)cc1` (centres unmarked) [Compound 508] was tested, and the inhibition at 25 ppm was < 80%. For `COc1ccnc(C(=O)N[C@H]2CC(C)(C)[C@H](O)C(C)(C)C2)c1O` [Compound 264, trans-4-HYDROXY-3,3,5,5-TETRAMETHYLPICOLINAMIDE], the inhibition at 25 ppm was < 80%.

The molecules below were run on Phytophthora infestans (PHYTIN) (assay: microbe, parasite or virus in culture). Conditions: Phytophthora infestans, read-out: PHYTIN in vitro Growth Inhibition.
Type: cell-based
For `COc1ccnc(C(=O)N[C@H]2COC(=O)[C@H](Cc3ccccc3)[C@@H](OC(=O)C(C)C)[C@H](C)OC2=O)c1OC(=O)CCCBr` [Compound 625], the inhibition at 25 ppm was < 80%. With `COc1cc(Br)nc(C(=O)N[C@H]2COC(=O)[C@H](Cc3ccccc3)[C@@H](OC(=O)C3CCCCC3)[C@H](C)OC2=O)c1O` [Compound 501] the inhibition at 25 ppm was < 80%. For `COc1ccc(C(C)NC(=O)c2ccncc2O)cc1` (centres unmarked) [Compound 508], the inhibition at 25 ppm was < 80%. For `COc1ccnc(C(=O)N[C@H]2CC(C)(C)[C@H](O)C(C)(C)C2)c1O` [Compound 264, trans-4-HYDROXY-3,3,5,5-TETRAMETHYLPICOLINAMIDE], the inhibition at 25 ppm was < 80%.

The molecules below were run on Phytophthora infestans—PHYTIN (assay: whole plant or invertebrate). Conditions: Phytophthora, in Solanum lycopersicum, 24 h, read-out: PHYTIN in vivo 1 Day Protectant.
Type: in vivo
With `COc1ccnc(C(=O)N[C@H]2COC(=O)[C@H](Cc3ccccc3)[C@@H](OC(=O)C(C)C)[C@H](C)OC2=O)c1OC(=O)CCCBr` [Compound 625] the pest or weed control at 100 ppm was < 25%. With `COc1cc(Br)nc(C(=O)N[C@H]2COC(=O)[C@H](Cc3ccccc3)[C@@H](OC(=O)C3CCCCC3)[C@H](C)OC2=O)c1O` [Compound 501] the pest or weed control at 100 ppm was < 25%. `COc1ccc(C(C)NC(=O)c2ccncc2O)cc1` (centres unmarked) [Compound 508] was tested, and the pest or weed control at 100 ppm was < 25%. With `COc1ccnc(C(=O)N[C@H]2CC(C)(C)[C@H](O)C(C)(C)C2)c1O` [Compound 264, trans-4-HYDROXY-3,3,5,5-TETRAMETHYLPICOLINAMIDE] the pest or weed control at 100 ppm was < 25%.

What follows are molecules tested on Puccinia recondita—PUCCRT (assay: Brown Rust of Wheat, in vivo whole plant, 24 Hour Protectant). Conditions: 100 ppm spray, wheat, 24 hour protectant, % control of fungal infection vs untreated plants.
With `COc1ccnc(C(=O)N[C@H]2COC(=O)[C@H](Cc3ccccc3)[C@@H](OC(=O)C(C)C)[C@H](C)OC2=O)c1OC(=O)CCCBr` [Compound 625] the “PUCCRT in vivo 1 Day Protectant” value was “+ +”.

Same assay, conditions: Puccinia; 100 ppm spray, 24 hour protectant, wheat; control of fungal infection vs untreated plants; read-out: PUCCRT in vivo 1 Day Protectant
In the case of `COc1ccnc(C(=O)N[C@H]2CC(C)(C)[C@H](O)C(C)(C)C2)c1O` [Compound 264, trans-4-HYDROXY-3,3,5,5-TETRAMETHYLPICOLINAMIDE], the pest or weed control at 100 ppm is reported as 25 to 74%.

Same assay, conditions: Puccinia; wheat plants sprayed at 100 ppm, inoculated after 24 hours; control of fungal infection vs untreated plants; read-out: PUCCRT in vivo 1 Day Protectant
For `COc1cc(Br)nc(C(=O)N[C@H]2COC(=O)[C@H](Cc3ccccc3)[C@@H](OC(=O)C3CCCCC3)[C@H](C)OC2=O)c1O` [Compound 501], the pest or weed control at 100 ppm was 25 to 74%. With `COc1ccc(C(C)NC(=O)c2ccncc2O)cc1` (centres unmarked) [Compound 508] the pest or weed control at 100 ppm was < 25%.

These molecules were tested on Erysiphe graminis—ERYSGT (assay: Powdery Mildew of Wheat, in vivo whole plant, 24 Hour Protectant). Conditions: Erysiphe; 100 ppm spray, 24 hour protectant, wheat; control of fungal infection vs untreated plants; read-out: ERYSGT in vivo 1 Day Protectant.
For `COc1ccnc(C(=O)N[C@H]2CC(C)(C)[C@H](O)C(C)(C)C2)c1O` [Compound 264, trans-4-HYDROXY-3,3,5,5-TETRAMETHYLPICOLINAMIDE], the pest or weed control at 100 ppm was < 25%.

Same assay, conditions: Erysiphe; 100 ppm spray, wheat, 24 hour protectant, % control of fungal infection vs untreated plants; read-out: ERYSGT in vivo 1 Day Protectant
For `COc1ccnc(C(=O)N[C@H]2COC(=O)[C@H](Cc3ccccc3)[C@@H](OC(=O)C(C)C)[C@H](C)OC2=O)c1OC(=O)CCCBr` [Compound 625], the pest or weed control at 100 ppm was < 25%.

Same assay, conditions: Erysiphe; wheat plants sprayed at 100 ppm, inoculated after 24 hours; control of fungal infection vs untreated plants; read-out: ERYSGT in vivo 1 Day Protectant
For `COc1cc(Br)nc(C(=O)N[C@H]2COC(=O)[C@H](Cc3ccccc3)[C@@H](OC(=O)C3CCCCC3)[C@H](C)OC2=O)c1O` [Compound 501], the pest or weed control at 100 ppm was < 25%. For `COc1ccc(C(C)NC(=O)c2ccncc2O)cc1` (centres unmarked) [Compound 508], the pest or weed control at 100 ppm was < 25%.

What follows are molecules tested on Septoria tritici—SEPTTR (assay: Leaf Blotch of Wheat, in vivo whole plant, 24 Hour Protectant). Conditions: 100 ppm spray, wheat, 24 hour protectant, % control of fungal infection vs untreated plants.
For `COc1ccnc(C(=O)N[C@H]2COC(=O)[C@H](Cc3ccccc3)[C@@H](OC(=O)C(C)C)[C@H](C)OC2=O)c1OC(=O)CCCBr` [Compound 625], the “SEPTTR in vivo 1 Day Protectant” value was “+ +”.

Same assay, conditions: Zymoseptoria tritici, 24 h, 100 ppm spray, 24 hour protectant, wheat; control of fungal infection vs untreated plants; read-out: SEPTTR in vivo 1 Day Protectant
In the case of `COc1ccnc(C(=O)N[C@H]2CC(C)(C)[C@H](O)C(C)(C)C2)c1O` [Compound 264, trans-4-HYDROXY-3,3,5,5-TETRAMETHYLPICOLINAMIDE], the pest or weed control at 100 ppm is reported as 25 to 74%.

Same assay, conditions: Zymoseptoria tritici, 24 h, wheat plants sprayed at 100 ppm, inoculated after 24 hours; control of fungal infection vs untreated plants; read-out: SEPTTR in vivo 1 Day Protectant
With `COc1cc(Br)nc(C(=O)N[C@H]2COC(=O)[C@H](Cc3ccccc3)[C@@H](OC(=O)C3CCCCC3)[C@H](C)OC2=O)c1O` [Compound 501] the pest or weed control at 100 ppm was < 25%. In the case of `COc1ccc(C(C)NC(=O)c2ccncc2O)cc1` (centres unmarked) [Compound 508], the pest or weed control at 100 ppm is reported as < 25%.

The molecules below were run on Leptosphaeria nodorum—LEPTNO (assay: Glume Blotch of Wheat, in vivo whole plant, 24 Hour Protectant). Conditions: 100 ppm spray, wheat, 24 hour protectant, % control of fungal infection vs untreated plants.
`COc1ccnc(C(=O)N[C@H]2COC(=O)[C@H](Cc3ccccc3)[C@@H](OC(=O)C(C)C)[C@H](C)OC2=O)c1OC(=O)CCCBr` [Compound 625] was tested, and the “LEPTNO in vivo 1 Day Protectant” value was “+ +”.

Same assay, conditions: Leptosphaeria; 100 ppm spray, 24 hour protectant, wheat; control of fungal infection vs untreated plants; read-out: LEPTNO in vivo 1 Day Protectant
For `COc1ccnc(C(=O)N[C@H]2CC(C)(C)[C@H](O)C(C)(C)C2)c1O` [Compound 264, trans-4-HYDROXY-3,3,5,5-TETRAMETHYLPICOLINAMIDE], the pest or weed control at 100 ppm was < 25%.

Same assay, conditions: Leptosphaeria; wheat plants sprayed at 100 ppm, inoculated after 24 hours; control of fungal infection vs untreated plants; read-out: LEPTNO in vivo 1 Day Protectant
In the case of `COc1cc(Br)nc(C(=O)N[C@H]2COC(=O)[C@H](Cc3ccccc3)[C@@H](OC(=O)C3CCCCC3)[C@H](C)OC2=O)c1O` [Compound 501], the pest or weed control at 100 ppm is reported as 25 to 74%. In the case of `COc1ccc(C(C)NC(=O)c2ccncc2O)cc1` (centres unmarked) [Compound 508], the pest or weed control at 100 ppm is reported as < 25%.

Reference: patent US6706740B2, “Fungicidal heterocyclic aromatic amides and their compositions, methods of use and preparation” (Dow AgroSciences LLC, priority 1999, dated 2004)
